Laboratory results published in paper PMC10525132, “Potent Antioxidant and Anti-Tyrosinase Activity of Butein and Homobutein Probed by Molecular Kinetic and Mechanistic Studies” (Antioxidants, 2023).
Values joined by “and” are separate entries in the source; they are usually repeats but may differ in a detail not shown here. Equal entries are not always repeated. Where two headings read alike, the source gives them in different places.

Assays:
[1] = cited from earlier work
[2] = design: method as in doi:10.1021/ja00310a049; conditions: reference value used for calibration, cited from earlier work
[3] = Inhibited autoxidation of methyl linoleate in Triton X-100 micelles (O2 uptake kinetics)
Procedure: Autoxidation studies were performed as previously described, with slight modifications. In a typical experiment, 2.5 mL of air-saturated buffered (PBS, 50 mM, pH 7.4) aqueous dispersion of MeLin (final concentration 2.74 mM) in Triton™ X-100 (final concentration 16 mM) micelles were prepared by vortex mixing. A fresh stock solution of AAPH was added (final concentration 2.5 mM), immediately followed by addition (5–30 μL) of a stock solution of the antioxidant in acetonitrile (final concentration of 1–20 μM) and by additional vortex mixing (5 s). The mixture was sealed in a 2 mL glass vial provided with a PTFE-coated stirring bar and capped with the O2 sensor. The sample was equilibrated at 37 °C in a thermostatted bath equipped with a sealed magnetic stirrer, and oxygen concentration was monitored with time as previously described. Oxygen consumption in the absence of antioxidants was compared with that recorded in the presence of butein, homobutein, or α-tocopherol (α-TOH) as the reference antioxidant. […]. The stoichiometric factor n was determined from the length of the inhibited period τ by Equation (3). The rate of initiation Ri was determined in preliminary experiments using α-TOH as the inhibitor (n = 2) by Equation (3). (1) −d[O2]/dt=kp[RH]Ri/nkinh[AH]+Ri (2) R0/Rinh−Rinh/R0=nkinh[AH]/2ktRi (3) n=Riτ/[AH]
To study the antioxidant activity of butein and homobutein on quantitative grounds, we performed inhibited autoxidation studies using biomimetic neutral micelles of methyl linoleate (MeLin) in aqueous Triton™ X-100 (with 50 mM PBS, pH 7.4, 37 °C), since it is a well-validated model we and others used in previous studies. The reaction kinetics was followed by monitoring oxygen consumption via miniaturized NIR-fluorescence-quenching O2 probes, according to a previously validated protocol, both in the absence and in the presence of different concentrations of butein or homobutein. The reaction was initiated thermally in the aqueous phase by the controlled decomposition of the azo compound AAPH so as to clearly distinguish the chain-breaking mechanism from other efficacies based on interference with the initiation process (e.g., the Fenton reaction by metal chelation) and α-TOH was used as the reference antioxidant.

In the case of CC(C)(C)c1cc(C(C)(C)C)c(O)c(C(C)(C)C)c1 [TBP, 2,4,6-tri-tert-butylphenol], the BDEOH ([1]; reference phenol) is listed as 80.1 kcal/mol.

In the case of CC(C)(C)c1cc(O)c(O)c(C(C)(C)C)c1 [3,5-di-tert-butylcatechol], the BDEOH [1] is given as 78.2 kcal/mol.

For Cc1c(C)c2c(c(C)c1O)CC[C@@](C)(CCC[C@H](C)CCC[C@H](C)CCCC(C)C)O2 [α-TOH, (R,R,R)-α-tocopherol], the “n (stoichiometric factor of peroxyl radical trapping)” value [2] is listed as 2 and 2 ^2, the “n (stoichiometric factor of peroxyl radical trapping)” value ([2]; listed as tocopherol) is listed as 2.0 and the “kinh (inhibition rate constant)” value ([3]; AAPH (2.5 mM) initiated autoxidation of MeLin/Triton X-100 micelles, 37 °C, pH 7.4) is listed as 22.4 ± 5.8 10^3 M^−1s^−1. The “kinh (inhibition rate constant)” value ([3]; MeLin in Triton X-100 micelles, pH 7.4, 37 °C) was “(2.2 ± 0.6) × 10^4 M^−1s^−1” and the BDEOH [1] was 77.1 ^3 kcal/mol.

In the case of OCCc1ccc(O)c(O)c1 [hydroxytyrosol], the BDEOH [1] is listed as 80.8 kcal/mol.
